Measured values taken from paper PMC4405350, “From Broad-Spectrum Biocides to Quorum Sensing Disruptors and Mussel Repellents: Antifouling Profile of Alkyl Triphenylphosphonium Salts” (PLoS ONE, 2015).
Where two headings read alike, the source gives them in different places.

Tests used:
[1] = test system: Alternaria sp.; assay: Marine-derived fungi growth inhibition (OD405); assay type: cell-based; details: Alternaria, 120 h, read-out: IC50 Alternaria sp.
Procedure: (§1) All the biological assays were run by triplicate. […] For the active products, serial dilutions were performed to calculate the half-maximal inhibitory concentrations (IC50) or the minimal inhibitory concentrations (MIC). Unless otherwise stated, the test concentrations were 100, 50, 25, 10, 5, 2.5, 1, 0.5 and 0.1 μM. Dose-response curves were adjusted with GraphPad Prism 5 software using a four-parameter non-linear regression model.
(§2) Three strains of marine-derived fungi were kindly provided by Dr. Á. Trigos (University of Veracruz, Mexico). The strains were isolated from reef organisms collected from the Veracruz Reef System and identified as Aspergillus sp., Fusarium sp. and Alternaria sp..
(§3) Fungal strains were cultured in Potato-Dextrose Agar (PDA) supplemented with filtered seawater (FSW) (50% v/v) at 26 °C for 5 days prior to experiments. […] Briefly, fungal inocula were prepared by addition of 5 ml of sterile saline solution to the cultures. Gently swabbing released conidia. […] The plates were incubated for 5 days at 26 °C. The calculation of the half-maximal inhibitory concentrations (IC50) was performed using OD405 as endpoint.

[2] = test system: Aspergillus sp.; assay: Marine-derived fungi growth inhibition (OD405); assay type: cell-based; details: Aspergillus, 120 h, read-out: IC50 Aspergillus sp.
Procedure: as §1, §2, §3

[3] = test system: Amphora sp.; assay: Benthic diatom growth inhibition (chlorophyll-a); assay type: cell-based; details: 120 h, read-out: IC50 Amphora sp.
Procedure: as §1
(§4) Five strains of benthic diatoms, Nitszchia sp. […] The Nitzschia and Navicula strains were purchased from the Spanish Bank of Algae (Marine Biotechnology Center, University of Las Palmas de Gran Canaria). The other three strains were kindly provided by Dr. G. Courtois (University of Las Palmas de Gran Canaria). Diatoms were cultured at 19±1 °C in Erlenmeyer flaks (250 ml) containing 150 ml of Guillard’s F/2 medium, and subjected to a photoperiod of 18:6. Tests were run in 48-well plates. Inocula were prepared by adjusting diatom concentration to 2–4 × 10^6 cells ml^-1 using a Neubauer chamber. Test products were dissolved in F/2 medium (500 μl) to which diatom inocula (500 μl) were added. Thus, the final assay volume was 1 ml and the starting cell densities were ca. 1–2 x 10^6 diatoms ml^-1. Plates were incubated under the abovementioned conditions for 5 days and then chlorophyll-a (Chla) was quantified.
(§5) In order to extract Chla, the content of each well was transferred to a microcentrifuge tube and centrifuged at 10,000 rpm for 10 min. The supernatants were discarded and 200 μl of DMSO were added to the pellets. The tubes were incubated at 65 °C for 2 h in total darkness and vortexed every 30 min. Then, the content of each tube was transferred to a 96-well plate and the amount of Chla was determined spectrophotometrically. Path length correction factor for the DMSO extracts was determined.

[4] = test system: Cylindrotheca sp.; assay: Benthic diatom growth inhibition (chlorophyll-a); assay type: cell-based; details: 120 h, read-out: IC50 Cylindrotheca sp.
Procedure: as §1, §4, §5

[5] = test system: Navicula cf. salinicola BEA 0055; assay: Benthic diatom growth inhibition (chlorophyll-a); assay type: cell-based; details: 120 h, read-out: IC50 Navicula cf. salinicola
Procedure: as §1, §4, §5

[6] = test system: Nitzschia sp.; assay: Benthic diatom growth inhibition (chlorophyll-a); assay type: cell-based; details: 120 h, read-out: IC50 Nitzschia sp.
Procedure: as §1, §4, §5

[7] = test system: Phaeodactylum tricornutum; assay: Benthic diatom growth inhibition (chlorophyll-a); assay type: cell-based; details: Phaeodactylum tricornutum, 120 h, read-out: IC50 P. tricornutum
Procedure: as §1, §4, §5

[8] = test system: Artemia salina nauplii; assay: in vivo; details: instar I nauplii, 24 h, 28 °C
Procedure: as §1
Artemia salina cysts (INVE Aquaculture, Ghent, Belgium) were hatched in brackish water (30 ‰ salinity) at 28 °C with aeration and under constant light. Newly hatched instar I nauplii were harvested for bioassays. Tests were conducted in 96-well plates (15±5 nauplii per well, test volume = 200 μl). The number of dead and alive individuals was recorded after 24 h of incubation at 28 °C and 24-hour photoperiod.

[9] = test system: C. violaceum CVO26; assay: C. violaceum CVO26 growth inhibition (OD625); assay type: cell-based; details: Chromobacterium violaceum, CVO26, 18 h, read-out: IC50 (Growth inhibition)
Procedure: The reporter strain C. violaceum CVO26 (CECT 5999) was used to screen the ability of the products to interfere with violacein production, a QS-regulated phenotype. C. violaceum CVO26 is a mini-Tn5 mutant that depends on an exogenous source of autoinducer (AI) (N-hexanoyl homoserine lactone, HHL) for violacein production. C. violaceum CVO26 was cultured in LB broth (Sigma-Aldrich) supplemented with 25 μg ml^-1 kanamycin. Inocula were prepared by dilution (1:100) of an overnight culture of the reporter strain [49]. One hundred microliters of inoculum with HHL (Sigma-Aldrich, 6 μM) or without the AI were added to 96-well plates containing 100 μl of the appropriate dilutions of the test products in LB. Thus, two sets of plates were prepared. One set of plates (without HHL) was used to evaluate the effect of the products on bacterial growth, whereas the other set of plates (with HHL) was used to evaluate their effect on violacein production. Both sets of plates were incubated at 30 °C with agitation (150 rpm) for 18 h.
Growth inhibition was quantified in the first batch of plates by re-suspending bacterial pellets and measuring the OD625. From the second batch of plates violacein was extracted and quantified. Briefly, the plates were dried overnight (60 °C) and violacein was re-solubilized by the addition of 200 μl of DMSO. The plates were shaken for 3 h and then the OD590 was determined.
Indeed, the inhibitions observed in violacein production for long alkyl chains (10–18, 20) were clearly correlated to the biocidal effect exerted by these compounds, with ‘therapeutic ratios’ (IC50 for growth inhibition/IC50 for violacein inhibition) around 1, in general (Table 2). Note that, as the length of the hydrocarbon chain becomes shorter, this ratio increased (8–9). […] To evaluate these compounds in further detail, […] stock solutions were prepared […] to avoid the use of high concentrations of DMSO in the bioassays. […] Serial two-fold dilutions (500–3.9 μM) were assayed. Consequently, the highest amount of DMSO used in the assay was 0.25% (v/v). […] Growth inhibitory effects are only observed at 500 μM, particularly for compound 7 (Fig 6D).

[10] = growth inhibition, 5 days, 26 °C

| Structure (SMILES) | IC50 [1, 10] [µM] | IC50 [2, 10] [µM] | IC50 ([3]; growth, 5 days, chlorophyll-a) [µM] | IC50 ([4]; growth, 5 days, chlorophyll-a) [µM] | IC50 ([5]; growth, 5 days, chlorophyll-a) [nM] | IC50 ([6]; growth, 5 days, chlorophyll-a) [µM] | IC50 ([7]; growth, 5 days, chlorophyll-a) [µM] | IC50 A. salina (LC50) [8] [µM] | IC50 [9] [µM] | IC50 [1] [µM] | IC50 [2] [µM] | IC50 [3] [µM] | IC50 [4] [µM] | IC50 [5] [nM] | IC50 [6] [µM] | IC50 [7] [µM] |
| --- | --- | --- | --- | --- | --- | --- | --- | --- | --- | --- | --- | --- | --- | --- | --- | --- |
| BrC(Br)[P+](c1ccccc1)(c1ccccc1)c1ccccc1 [Compound 1] | > 100 | > 100 | 19.5 | 9.8 | 10600 | 18.7 | 16.8 | >100 | > 100 |  |  |  |  |  |  |  |
| COC(=O)CCC[P+](c1ccccc1)(c1ccccc1)c1ccccc1 [Compound 2] | > 100 | > 100 | 43.4 | 23.7 | 50200 | 40.2 | > 100 | >100 | > 100 |  |  |  |  |  |  |  |
| C/C=C/C[P+](c1ccccc1)(c1ccccc1)c1ccccc1 [Compound 3] | > 100 | > 100 | > 100 | > 100 | 62200 | > 100 | > 100 | >100 | > 500 |  |  |  |  |  |  |  |
| BrCCCC[P+](c1ccccc1)(c1ccccc1)c1ccccc1 [Compound 4] | > 100 | > 100 | > 100 | > 100 | > 100000 | > 100 | > 100 | 92.7 | > 500 |  |  |  |  |  |  |  |
| CCCCN[P+](c1ccccc1)(c1ccccc1)c1ccccc1 [Compound 5] | > 100 | > 100 | 42.5 | 12.6 | 8200 | 11.9 | 81.5 | 17.2 | > 500 |  |  |  |  |  |  |  |
| O=S(=O)([O-])CCCC[P+](c1ccccc1)(c1ccccc1)c1ccccc1 [Compound 6] | > 100 | > 100 | > 100 | 21.3 | > 100000 | > 100 | > 100 | >100 | > 100 |  |  |  |  |  |  |  |
| CCCCC[P+](c1ccccc1)(c1ccccc1)c1ccccc1 [Compound 7] | > 100 | > 100 | > 100 | > 100 | > 100000 | > 100 | > 100 | >100 | > 500 |  |  |  |  |  |  |  |
| CCCCCCC[P+](c1ccccc1)(c1ccccc1)c1ccccc1 [Compound 8, heptyl triphenylphosphonium bromide] | 12 | 12.4 | 37.6 | 10.6 | 6400 | 20.8 | 92.2 | 20.4 | 52.5 |  |  |  |  |  |  |  |
| CCCCCCCCC[P+](c1ccccc1)(c1ccccc1)c1ccccc1 [Compound 9] | 7.4 | 10 | 6.2 | 1.9 | 2700 | 3.6 | 11.2 | 2.0 | 16 |  |  |  |  |  |  |  |
| CCCCCCCCCC[P+](c1ccccc1)(c1ccccc1)c1ccccc1 [Compound 10] | 5.2 | 11.7 | 3.2 | 1 | 2300 | 2.5 | 1.9 | 1.4 | 11.9 |  |  |  |  |  |  |  |
| CCCCCCCCCCC[P+](c1ccccc1)(c1ccccc1)c1ccccc1 [Compound 11] | 3.5 | 5.1 | 3.3 | 1 | 1500 | 2.3 | 1.7 | 1.8 | 4.9 |  |  |  |  |  |  |  |
| CCCCCCCCCCCC[P+](c1ccccc1)(c1ccccc1)c1ccccc1 [Compound 12] |  |  |  |  |  |  |  | 2.4 | 10.3 | 1.2 | 7.5 | 4.8 | 1 | 1300 | 2.2 | 1.2 |
| CCCCCCCCCCCCC[P+](c1ccccc1)(c1ccccc1)c1ccccc1 [Compound 13] | 1.6 | 4.8 | 4.5 | 1.7 | 1800 | 2.2 | 1 | 0.9 | 3.2 |  |  |  |  |  |  |  |
| CCCCCCCCCCCCCC[P+](c1ccccc1)(c1ccccc1)c1ccccc1 [Compound 14] | 0.7 | 5.3 | 2.1 | 4.5 | 1200 | 3.5 | 1.5 | 1.8 | 2.3 |  |  |  |  |  |  |  |
| CCCCCCCCCCCCCCC[P+](c1ccccc1)(c1ccccc1)c1ccccc1 [Compound 15] | 2.9 | 5.2 | 3.1 | 2.2 | 2800 | 3.6 | 1.1 | 2.8 | 2.6 |  |  |  |  |  |  |  |
| CCCCCCCCCCCCCCCC[P+](c1ccccc1)(c1ccccc1)c1ccccc1 [Compound 16] | 1.4 | 5.2 | 2.6 | 4.7 | 1300 | 4.9 | 1.3 | 1.8 | 3.2 |  |  |  |  |  |  |  |
| O=C(O)CCCCCCCCCC[P+](c1ccccc1)(c1ccccc1)c1ccccc1 [Compound 19] | > 100 | > 100 | 75.5 | 24.1 | > 100000 | > 100 | > 100 |  | > 100 |  |  |  |  |  |  |  |
